Marks after values point to notes of the source that are not given here.
Assays:
Type in all cases: in vivo, BALB/c mice
[1] = system: normal mice; assay: Hematological parameters of normal mice treated with ART
Protocol: Blood was drawn for hematological estimations by thoracotomy and collected in heparinized vials. Blood was diluted using RBC diluting fluid (1: 1000) and WBC diluting fluid (1:100), and RBCs and WBCs were counted using a Neubauer counting chamber. Differential count was performed on blood smear stained with Leishman stain and observed under a microscope at 40X magnification (Dewinter Optical Inc., India). The percentage of lymphocytes, neutrophils, monocytes, eosinophils and basophils were recorded according to their nuclear structure ([27]). Hemoglobin content was estimated using Drabkin’s solution (1g sodium bicarbonate, 0.05g potassium cyanide and 0.2g potassium ferricyanide per liter), which lysed RBCs to convert hemoglobin to cyanmethemoglobin. Finally, the hemoglobin content of the test and the standard samples were obtained in gm/dl by recording the O.D. at 540 nm, and using the formula: O.D of test/O.D of standard x concentration of standard ([28]).

[2] = Body weight of mice
Protocol: Mouse mammary 4T1 cells in passage numbers between 7 and 12 (10^4 cells/ml in 50 µl PBS) were injected into the inguinal 4th mammary fat pad of BALB/c mice ([23], [24]). Normal mice received an equal volume of sterile PBS. A palpable tumor was allowed to develop for 14 days ([24]). […] Normal (mammary fat pad surrounding the 4th inguinal mammary pad), mammary tumor, and organs like lungs, kidney, liver, and blood were collected at the end of the experimental schedule. Body weight and tumor volume of each mouse were recorded daily during the tenure of the experiment. Tumor volume was calculated using the following formula: length (mm) × width^2 (mm) × 0.52 ([25]).

[3] = system: ALDH+ cells (CSCs) of mammary tumors; assay: ALDH+ population estimation (Aldefluor) in tumors; settings: untreated tumor 24.1%
Protocol: Mammary fat pad and tumor tissues (1 × 10^6 cells/ml) were resuspended in aldefluor™ assay buffer containing ALDH substrate and incubated for 45 minutes at 37°C. As a control, cells were resuspended in buffer containing aldefluor substrate in the presence of diethylaminobenzaldehyde (DEAB), a specific ALDH inhibitor. The fluorescent ALDH^+ cells were detected in the green fluorescence channel (520-540nm) in a flow cytometer (BD FACS Aria III). ALDH^+ and ALDH^- cells were eventually sorted using the BD Aria III Cell Sorter and sorted cells collected for further analysis (BD Biosciences, USA; [21]).

[4] = system: tumor-bearing mice; assay: Hematological parameters of tumor-bearing mice treated with ART; settings: 7 days
[5] = system: beclin1 and LC3α/β; assay: Western blot of autophagic markers in tumor tissues; settings: ART dose-dependent
Protocol: (§1) Normal and tumor tissues were homogenized in ice-cold radioimmunoprecipitation assay (RIPA) buffer containing a protease inhibitor cocktail. Proteins were resolved by 10% sodium dodecyl sulphate-polyacrylamide gel electrophoresis (SDS-PAGE), transferred onto polyvinylidene difluoride (PVDF) membranes, blocked with 5% fat-free milk and incubated with primary antibodies (1:1000 dilution) overnight at 4°C. Blots were subsequently washed and incubated with respective secondary antibodies, tagged with horseradish peroxidase. Protein expression was detected using enhanced chemiluminescence (ECL) kit ([37]). Blots were analyzed using the Gel Doc XR and band intensity quantified using ImageJ software (NIH, USA).

[6] = system: tumor-bearing mice; assay: Mean survival time of tumor-bearing mice; settings: for MST: tumor-bearing mice, observed 90 days
Protocol: MST was calculated using the equation: MST (days) = (day of first mortality + day of last mortality)/2. The increase in survivability between treated and untreated groups was estimated by ILS% = [(MST of treated set/MST of untreated set) -1] X 100 ([26]).

[7] = system: CLEC12A; assay: Western blot of CLEC12A in tumor tissues; settings: ART treatment, dose-dependent
Protocol: as §1

## C[C@@H]1CC[C@H]2[C@@H](C)C(=O)O[C@@H]3O[C@@]4(C)CC[C@@H]1[C@]32OO4 [ART, Artemisinin]
[1]; ART 6.25 mg/kg body wt
  Differential Count % B (Basophils): 0%
  Differential Count % E (Eosinophils): 0%
  Differential Count % L (Lymphocytes): 67± 4.1%
  Differential Count % M (Monocytes): 0%
  Differential Count % N (Neutrophils): 33± 3.1%
  Hb: 13.1 ± 0.45 g/dL
  Total RBC: 8.1± 0.62 10^6cells/mm^3
[1]; ART 12.5 mg/kg body wt
  Differential Count % B (Basophils): 0%
  Differential Count % E (Eosinophils): 0%
  Differential Count % L (Lymphocytes): 72± 1.7%
  Differential Count % M (Monocytes): 0%
  Differential Count % N (Neutrophils): 28± 3.5%
  Hb: 14.1 ± 0.47 g/dL
  Total RBC: 7.8± 0.38 10^6cells/mm^3
  Total WBC: 8.3± 1.8 10^3 cells/mm^3
[1]; ART 25 mg/kg body wt
  Differential Count % B (Basophils): 0%
  Differential Count % E (Eosinophils): 0%
  Differential Count % L (Lymphocytes): 74± 3.4%
  Differential Count % M (Monocytes): 0%
  Differential Count % N (Neutrophils): 26± 2.3%
  Hb: 14.7 ± 0.39 g/dL
  Total RBC: 8.2± 0.34 10^6cells/mm^3
  Total WBC: 8.75± 2.6 10^3 cells/mm^3
[1]; ART 50 mg/kg body wt
  Differential Count % B (Basophils): 0%
  Differential Count % E (Eosinophils): 0%
  Differential Count % L (Lymphocytes): 70± 2.2%
  Differential Count % M (Monocytes): 1%
  Differential Count % N (Neutrophils): 29 ± 3.2%
  Hb: 13.8 ± 0.41 g/dL
  Total RBC: 8.1± 0.41 10^6cells/mm^3
  Total WBC: 8.3± 1.44 10^3 cells/mm^3
[2]; normal mice, ART 6.25-50 mg/kg, 7 days, vs vehicle
  body weight: did not alter
[2]; tumor-bearing mice, ART treatment, dose-dependent
  body weight: restored towards normal values
[3]; T+ 25: ART 25 mg/kg
  percentage of ALDH+ cells: 8.1%
[3]; T+ 50: ART 50 mg/kg
  percentage of ALDH+ cells: 6.2%
[4]; ART 6.25 mg/kg body wt i.p.
  Differential Count % B (Basophils): 0%
  Differential Count % E (Eosinophils): 0%
  Differential Count % L (Lymphocyte): 36± 2.5%
  Differential Count % M (Monocytes): 1%
  Differential Count % N (Neutrophils): 63± 1.4%
  Hb: 10.1 ± 0.42 g/dL
  Total RBC: 5.1± 0.1 10^6 cells/mm^3
  Total WBC: 16.8± 0.8** 10^3 cells/mm^3
[4]; ART 12.5 mg/kg body wt i.p.
  Differential Count % B (Basophils): 0%
  Differential Count % E (Eosinophils): 0%
  Differential Count % L (Lymphocyte): 51± 2.6 %
  Differential Count % M (Monocytes): 1%
  Differential Count % N (Neutrophils): 48± 2.6 %
  Hb: 13.7 ± 0.33 g/dL
  Total RBC: 6.3± 0.29^* 10^6 cells/mm^3
  Total WBC: 10.2± 1.16^*** 10^3 cells/mm^3
[4]; ART 25 mg/kg body wt i.p.
  Differential Count % B (Basophils): 0%
  Differential Count % E (Eosinophils): 0%
  Differential Count % L (Lymphocyte): 53± 2.1 %
  Differential Count % M (Monocytes): 1%
  Differential Count % N (Neutrophils): 46± 1.3 %
  Hb: 14.2 ± 0.21 g/dL
  Total RBC: 6.7± 0.14^* 10^6 cells/mm^3
  Total WBC: 9.3± 1.8^*** 10^3 cells/mm^3
[4]; ART 50 mg/kg body wt i.p.
  Differential Count % B (Basophils): 0%
  Differential Count % E (Eosinophils): 0%
  Differential Count % L (Lymphocyte): 57± 1.2 %
  Differential Count % M (Monocytes): 2%
  Differential Count % N (Neutrophils): 41± 1.5 %
  Hb: 14.6 ± 0.61 g/dL
  Total RBC: 7.6± 0.67^* 10^6 cells/mm^3
  Total WBC: 9.1± 1.23^*** 10^3 cells/mm^3
[5]
  expression of autophagic markers, beclin1 and LC3α/β: decreased expression
[6]; Kaplan-Meier plot, untreated succumbed within 50 days
  mean survival of tumor-bearing mice treated with ART: ~90 days
[6]; ART 6.25 mg/kg body wt
  MST: 48.2 ± 17.3 days
[6]; ART 12.5 mg/kg body wt
  MST: 61.3 ± 8.9 days
[6]; ART 25 mg/kg body wt
  MST: 75.4 ± 7.1 days
[6]; ART 50 mg/kg body wt
  MST: 88.3 ± 8.9 days
[7]
  expression of CLEC12A: reduced

From publication PMC10748408 (Frontiers in Oncology, 2023)
